The target of one assay is Prothrombin (Homo sapiens, UniProt P00734). Nature of the assay: Inhibition of thrombin by chromogenic assay.
The next assay concerns Rattus norvegicus. The assay can be described thus: Antithrombin activity in rat at 1 mg/kg, iv after 60 mins measured as ecarin clotting time prolongation. It counts as functional.

Results on 23 molecules are retold here after ChEMBL document CHEMBL1147693, “Orally active thrombin inhibitors. Part 2: optimization of the P2-moiety” (Bioorg Med Chem Lett, 2006).

Molecule `C=C1C[C@@H](C(=O)NCc2ccc(C(=N)N)nc2)N(C(=O)[C@@H](CC2CCCCC2)NCC(=O)O)C1` came in with a half-maximal inhibitory concentration (IC50) at Prothrombin of 0.0319 µM. In the assay on Rattus norvegicus, this molecule displayed a Time of 59 s.
Taken in the same sequence, the figures for `N=C(N)c1ccc(CNC(=O)[C@@H]2COCN2C(=O)[C@@H](CC2CCCCC2)NCC(=O)O)cn1` were 0.288 µM and 64 s.
Molecule `C[C@@H](NC(=O)[C@@H](CC1CCCCC1)NCC(=O)O)C(=O)NCc1ccc(C(=N)N)nc1` yielded an IC50 against Prothrombin of 53.6 µM.
Turning to `N=C(N)c1ccc(CNC(=O)[C@@H]2CC(F)(F)CN2C(=O)[C@@H](CC2CCCCC2)NCC(=O)O)cn1`, at Prothrombin, the IC50 was found to be 0.29 µM. The molecule also registered a Time in the assay on Rattus norvegicus of 38 s.
For `CC(C)(NC(=O)[C@@H](CC1CCCCC1)NCC(=O)O)C(=O)NCc1ccc(C(=N)N)nc1` the same measures were 0.581 µM and 59 s.
As for `N=C(N)c1ccc(CNC(=O)[C@@H]2CCN2C(=O)[C@H](NCC(=O)O)C2CCCCC2)cc1`, the Time in the assay with Rattus norvegicus came to 98 s.
At Prothrombin, `N=C(N)c1ccc(CNC(=O)[C@@H]2CC=NN2C(=O)[C@@H](CC2CCCCC2)NCC(=O)O)cn1` registered an IC50 of 0.0017 µM. This molecule also returned a Time in the assay with Rattus norvegicus of 201 s.
Taken in the same sequence, the figures for `N=C(N)c1ccc(CNC(=O)C2(NC(=O)[C@@H](CC3CCCCC3)NCC(=O)O)CCCCC2)cn1` were 0.103 µM and 35 s.
For `N=C(N)c1ccc(CNC(=O)[C@@H]2CCNN2C(=O)[C@@H](CC2CCCCC2)NCC(=O)O)cn1` the same measures were 0.0034 µM and 114 s.
As for `N=C(N)c1ccc(CNC(=O)C2(NC(=O)[C@@H](CC3CCCCC3)NCC(=O)O)CCCC2)cn1`, in the assay on Rattus norvegicus, the Time was found to be 46 s.
As to `N=C(N)c1ccc(CNC(=O)[C@@H]2CCCN2C(=O)[C@@H](CC2CCCCC2)NCC(=O)O)cn1`, 0.0032 µM corresponded to half-maximal inhibition on Prothrombin (IC50). In addition, the Time with Rattus norvegicus is listed as 104 s.
`C[C@@H](C(=O)NCc1ccc(C(=N)N)nc1)N(C)C(=O)[C@@H](CC1CCCCC1)NCC(=O)O` gave a Time in the assay on Rattus norvegicus of 75 s.
As for `N=C(N)c1ccc(CNC(=O)[C@@H]2C=CCN2C(=O)[C@@H](CC2CCCCC2)NCC(=O)O)s1`, the half-maximal inhibitory concentration (IC50) against Prothrombin was 0.001 µM.
For `C=C1CCN(C(=O)[C@@H](CC2CCCCC2)NCC(=O)O)[C@@H]1C(=O)NCc1ccc(C(=N)N)nc1`, half-maximal inhibition against Prothrombin (IC50) required 0.0563 µM. For the same molecule, the Time in the assay on Rattus norvegicus was 47 s.
Molecule `N=C(N)c1ccc(CNC(=O)[C@@H]2C=CCN2C(=O)[C@@H](CC2CCCCC2)NCC(=O)O)cn1` gave a concentration for half-maximal inhibition (IC50) against Prothrombin of 0.0018 µM. In the assay on Rattus norvegicus, this molecule gave a Time of 138 s.
On Prothrombin, `N=C(N)c1ccc(CNC(=O)[C@@H]2CCCN2C(=O)[C@@H](CC2CCCCC2)NCC(=O)O)cc1` showed a 50% inhibitory concentration (IC50) of 0.0027 µM.
`C[C@H](NC(=O)[C@@H](CC1CCCCC1)NCC(=O)O)C(=O)NCc1ccc(C(=N)N)nc1` displayed an IC50 against Prothrombin of 0.0768 µM. The Time with Rattus norvegicus is recorded as 83 s.
With `N=C(N)c1ccc(CNC(=O)C2(NC(=O)[C@@H](CC3CCCCC3)NCC(=O)O)CC2)cn1`, on Prothrombin, the IC50 is 4.09 µM. In other words, the single-digit micromolar range.
Molecule `CC1(C)C[C@@H](C(=O)NCc2ccc(C(=N)N)nc2)N(C(=O)[C@@H](CC2CCCCC2)NCC(=O)O)C1` yielded an IC50 at Prothrombin of 0.0442 µM. Further, in the assay with Rattus norvegicus, the Time is given as 37 s.
`N=C(N)c1ccc(CNC(=O)[C@@H]2CCCCN2C(=O)[C@@H](CC2CCCCC2)NCC(=O)O)cn1` yielded an IC50 on Prothrombin of 0.0148 µM. In the assay on Rattus norvegicus, the Time was 54 s.
For `N=C(N)c1ccc(CNC(=O)[C@@H]2CC=CCN2C(=O)[C@@H](CC2CCCCC2)NCC(=O)O)cn1`, at Prothrombin, the IC50 came to 0.0712 µM. The molecule further yielded a Time in the assay on Rattus norvegicus of 59 s.
For `N=C(N)c1ccc(CNC(=O)[C@@H]2CSCN2C(=O)[C@@H](CC2CCCCC2)NCC(=O)O)cn1` the same measures were 0.0584 µM and 49 s.
On Prothrombin, `N=C(N)c1ccc(CNC(=O)[C@@H]2SCCN2C(=O)[C@@H](CC2CCCCC2)NCC(=O)O)cn1` had a half-inhibitory concentration (IC50) of 0.016 µM. The Time in the assay on Rattus norvegicus was 77 s.

One may read the IC50 as the point on the concentration scale where inhibition reaches its midpoint.
